# According to PMC10999085, “Synthesis, anticancer evaluation, molecular docking and ADME study of novel pyrido[4ʹ,3ʹ:3,4]pyrazolo[1,5-a]pyrimidines as potential tropomyosin receptor kinase A (TrKA) inhibitors” (BMC Chemistry, 2024):
# Key:
# MCF7 cell line = test: MTT assay, MCF7 cell line; type: cell-based, human; conditions: 24 hr treatment, in % (unit assumed); for Cytotoxicity at 5 µg/l: MCF7, 5 µg/l; for Cytotoxicity at 10 µg/l: MCF7, 10 µg/l; for Cytotoxicity at 20 µg/l: MCF7, 20 µg/l
# Experimental: (§1) Determination of the inhibitory effects of compounds on cell growth was performed through the MTT assay. This colorimetric assay is based on the conversion of the yellow tetrazolium bromide (MTT) to a purple formazan derivative by mitochondrial succinate dehydrogenase in viable cells. The protocol was discussed in details in Additional file 1.
# (§2) Compounds 1, 4a,b, 7a–c, 7k, l, 9a–c, 14a, 15b, 16a–c were selected to be investigated against three human cancer cell lines MCF7, HepG2 and HCT116 cell lines using MTT assay using doxorubicin as the standard drug. Each point is the mean ± SD (standard deviation) of three independent experiments performed in triplicate, using the prism software program (integrated Graphpad software, version 3).
# (§3) Cell lines were used to measure the cell growth effects of the compounds using the MTT assay. This colorimetric assay is depend on the conversion of the yellow tetrazolium bromide (MTT) to a purple formazan derivative by mitochondrial succinate dehydrogenase in living cells. Cell lines were cultured in RPMI-1640 medium supplemented with 10% fetal bovine serum. The antibiotics added were 100 units/ml penicillin and 100 µg/ml streptomycin at 37 °C in a 5% CO2 incubator. Cell lines were seeded in a 96-well plates at a density of 1.0x10^4 cells/well and cultured at 37 °C for 48 h under 5% CO2. After incubation, the cells were treated with different concentrations of compounds and incubated for 24 hr. After 24 hr of drug treatment, 20 µl of MTT solution at 5 mg/ml was added to each well and incubated for 4 hr. 100 µl of dimethyl sulfoxide (DMSO) was added into each well to dissolve the purple formazan formed. The colorimetric assay was measured and recorded at absorbance of 570 nm using a plate reader (EXL 800, USA). Relative cell viability (%) was calculated as (A570 of treated sample/A570 of untreated sample) x 100 [36, 37].
# HCT-116 cell line = test: MTT assay, HCT-116 cell line; type: cell-based, human; conditions: for Cytotoxicity at 5 µg/l: HCT116, 5 µg/l; for Cytotoxicity at 5 µg/l / Cytotoxicity at 10 µg/l / Cytotoxicity at 20 µg/l: MTT, 24 hr treatment, in % (unit assumed); for Cytotoxicity at 10 µg/l: HCT116, 10 µg/l; for Cytotoxicity at 20 µg/l: HCT116, 20 µg/l
# Experimental: as §1, §2, §3
# HepG2 cell line = test: MTT assay, HepG2 cell line; type: cell-based, human; conditions: for Cytotoxicity at 5 µg/l: HepG2, 5 µg/l; for Cytotoxicity at 5 µg/l / Cytotoxicity at 10 µg/l / Cytotoxicity at 20 µg/l: MTT, 24 hr treatment, in % (unit assumed); for Cytotoxicity at 10 µg/l: HepG2, 10 µg/l; for Cytotoxicity at 20 µg/l: HepG2, 20 µg/l
# Experimental: as §1, §2, §3
SMILES,melting point [°C],also measured
"Nc1n[nH]c2c1C(=O)NC(=O)C2 [Compound 1, 3-amino-1,7-dihydro-4H-pyrazolo[4,3-c]pyridine-4,6(5H)-dione]",,Cytotoxicity at 5 µg/l (MCF7 cell line): 31.71; Cytotoxicity at 10 µg/l (MCF7 cell line): 61.39; Cytotoxicity at 20 µg/l (MCF7 cell line): 73.65; Cytotoxicity at 5 µg/l (HCT-116 cell line): 16.23; Cytotoxicity at 10 µg/l (HCT-116 cell line): 52.09; Cytotoxicity at 20 µg/l (HCT-116 cell line): 71.08; Cytotoxicity at 5 µg/l (HepG2 cell line): 43.17; Cytotoxicity at 10 µg/l (HepG2 cell line): 53.18; Cytotoxicity at 20 µg/l (HepG2 cell line): 65.34
"Cc1cc(C)n2nc3c(c2n1)C(=O)NC(=O)C3=Cc1ccccc1O [Compound 7d, 7-(2-Hydroxybenzylidene)-2,4-dimethylpyrido[4ʹ,3ʹ:3,4]pyrazolo[1,5-a]pyrimidine-8,10(7H,9H)-dione]",> 360,
"COc1cc(C=C2C(=O)NC(=O)c3c2nn2c(C)cc(C)nc32)cc(OC)c1OC [Compound 7f, 2,4-Dimethyl-7-(3,4,5-trimethoxybenzylidene)pyrido[4ʹ,3ʹ:3,4]pyrazolo[1,5-a]pyrimidine-8,10(7H,9H)-dione]",240,
"Cc1cc(C)n2nc3c(c2n1)C(=O)NC(=O)C3=Cc1ccc2c(c1)OCO2 [Compound 7g, 7-(Benzo[d][1,3]dioxol-5-ylmethylene)-2,4-dimethylpyrido[4ʹ,3ʹ:3,4]pyrazolo[1,5-a]-pyrimidine-8,10(7H,9H)-dione]",300,
"Cc1cc(C)n2nc3c(c2n1)C(=O)NC(=O)C3=Cc1cccs1 [Compound 7i, 2,4-Dimethyl-7-(thiophen-2-ylmethylene)pyrido[4ʹ,3ʹ:3,4]pyrazolo[1,5-a]pyrimidine-8,10(7H,9H)-dione]",290,
"Cc1cc(C)n2nc3c(c2n1)C(=O)NC(=O)C3=Cc1ccncc1 [Compound 7j, 2,4-Dimethyl-7-(pyridin-4-ylmethylene)pyrido[4ʹ,3ʹ:3,4]pyrazolo[1,5-a]pyrimidine-8,10(7H,9H)-dione]",270,
"O=C1NC(=O)c2c(nn3c(-c4ccccc4)cc(-c4ccccc4)nc23)C1=Cc1ccc(Cl)cc1 [Compound 7m, 7-(4-Chlorobenzylidene)-2,4-diphenylpyrido[4ʹ,3ʹ:3,4]pyrazolo[1,5-a]pyrimidine-8,10(7H,9H)-dione]",320,
"O=C1NC(=O)c2c(nn3c(-c4ccccc4)cc(-c4ccccc4)nc23)C1=Cc1ccccc1O [Compound 7n, 7-(2-Hydroxybenzylidene)-2,4-diphenylpyrido[4ʹ,3ʹ:3,4]pyrazolo[1,5-a]pyrimidine-8,10(7H,9H)-dione]",275,
"COc1ccc(OC)c(C=C2C(=O)NC(=O)c3c2nn2c(-c4ccccc4)cc(-c4ccccc4)nc32)c1 [Compound 7o, 7-(2,5-Dimethoxybenzylidene)-2,4-diphenylpyrido[4ʹ,3ʹ:3,4]pyrazolo[1,5-a]pyrimidine-8,10(7H,9H)-dione]",275,
"COc1cc(C=C2C(=O)NC(=O)c3c2nn2c(-c4ccccc4)cc(-c4ccccc4)nc32)cc(OC)c1OC [Compound 7p, 2,4-Diphenyl-7-(3,4,5-trimethoxybenzylidene)pyrido[4ʹ,3ʹ:3,4]pyrazolo[1,5-a]-pyrimidine-8,10(7H,9H)-dione]",315,
"O=C1NC(=O)c2c(nn3c(-c4ccccc4)cc(-c4ccccc4)nc23)C1=Cc1ccc2c(c1)OCO2 [Compound 7q, 7-(Benzo[d][1,3]dioxol-5-ylmethylene)-2,4-diphenylpyrido[4ʹ,3ʹ:3,4]pyrazolo[1,5-a]-pyrimidine-8,10(7H,9H)-dione]",335,
"O=C1NC(=O)c2c(nn3c(-c4ccccc4)cc(-c4ccccc4)nc23)C1=Cc1ccco1 [Compound 7r, 7-(Furan-2-ylmethylene)-2,4-diphenylpyrido[4ʹ,3ʹ:3,4]pyrazolo[1,5-a]pyrimidine-8,10(7H,9H)-dione]",335,
"O=C1NC(=O)c2c(nn3c(-c4ccccc4)cc(-c4ccccc4)nc23)C1=Cc1cccs1 [Compound 7s, 2,4-Diphenyl-7-(thiophen-2-ylmethylene)pyrido[4ʹ,3ʹ:3,4]pyrazolo[1,5-a]pyrimidine-8,10(7H,9H)-dione]",315,
"O=C1NC(=O)c2c(nn3c(-c4ccccc4)cc(-c4ccccc4)nc23)C1=Cc1ccncc1 [Compound 7t, 2,4-Diphenyl-7-(pyridin-4-ylmethylene)pyrido[4ʹ,3ʹ:3,4]pyrazolo[1,5-a]pyrimidine-8,10(7H,9H)-dione]",340,
"Cc1cc(C)n2nc3c(c2n1)C(=O)NC(=O)C3=NNc1ccc(Cl)cc1 [Compound 9d, 7-(2-(4-Chlorophenyl)hydrazono)-2,4-dimethylpyrido[4ʹ,3ʹ:3,4]pyrazolo[1,5-a]pyrimidine-8,10(7H,9H)-dione]",300,
"O=C1NC(=O)c2c(nn3c(-c4ccccc4)cc(-c4ccccc4)nc23)C1=NNc1ccccc1 [Compound 11a, 2,4-Diphenyl-7-(2-phenylhydrazono)pyrido[4ʹ,3ʹ:3,4]pyrazolo[1,5-a]pyrimidine-8,10(7H,9H)-dione]",315,
"Cc1ccc(NN=C2C(=O)NC(=O)c3c2nn2c(-c4ccccc4)cc(-c4ccccc4)nc32)cc1 [Compound 11b, 2,4-Diphenyl-7-(2-(p-tolyl)hydrazono)pyrido[4ʹ,3ʹ:3,4]pyrazolo[1,5-a]pyrimidine-8,10(7H,9H)-dione]",320,
"O=C1NC(=O)c2c(nn3c(-c4ccccc4)cc(-c4ccccc4)nc23)C1=NNc1ccc(Cl)cc1 [Compound 11d, 7-(2-(4-Chlorophenyl)hydrazono)-2,4-diphenylpyrido[4ʹ,3ʹ:3,4]pyrazolo[1,5-a]pyrimidine-8,10(7H,9H)-dione]",335,
"COc1cccc2c1C(=O)c1c(O)c3c(c(O)c1C2=O)C[C@@](O)(C(=O)CO)C[C@@H]3O[C@H]1C[C@H](N)[C@H](O)[C@H](C)O1 [Doxo, Doxorubicin, reference compound]",,"Cytotoxicity at 5 µg/l (MCF7 cell line): 75.43; Cytotoxicity at 10 µg/l (MCF7 cell line): 89.14; Cytotoxicity at 20 µg/l (MCF7 cell line): 98.19; Cytotoxicity at 5 µg/l (HCT-116 cell line): 62.14; Cytotoxicity at 10 µg/l (HCT-116 cell line): 77.18; Cytotoxicity at 20 µg/l (HCT-116 cell line): 95.26; IC50 (HCT-116 cell line; Homo sapiens, HCT-116, HCT116, MTT, read-out: IC50 (drug concentration that inhibited 50% of cell proliferation)): 3.64 ng/mL; Cytotoxicity at 5 µg/l (HepG2 cell line): 53.46; Cytotoxicity at 10 µg/l (HepG2 cell line): 68.59; Cytotoxicity at 20 µg/l (HepG2 cell line): 91.13; IC50 (HepG2 cell line; Homo sapiens, HepG2, MTT, read-out: IC50 (drug concentration that inhibited 50% of cell proliferation)): 4.75 ng/mL"

# Continued, in another order:
melting point [°C],SMILES,also measured
310,"O=C1Cc2nn3c(O)cc(-c4ccccc4)nc3c2C(=O)N1 [Compound 14b, 4-Hydroxy-2-phenylpyrido[4ʹ,3ʹ:3,4]pyrazolo[1,5-a]pyrimidine-8,10(7H,9H)-dione]",
305,"Cc1cc(O)n2nc3c(c2n1)C(=O)NC(=O)C3=Cc1ccccc1 [Compound 15a, 7-Benzylidene-4-hydroxy-2-methylpyrido[4ʹ,3ʹ:3,4]pyrazolo[1,5-a]pyrimidine-8,10(7H,9H)-dione]",
330,"Cc1cc(O)n2nc3c(c2n1)C(=O)NC(=O)C3=Cc1ccc(Cl)cc1 [Compound 15c, 7-(4-Chlorobenzylidene)-4-hydroxy-2-methylpyrido[4ʹ,3ʹ:3,4]pyrazolo[1,5-a]pyrimidine-8,10(7H,9H)-dione]",
300,"O=C1NC(=O)c2c(nn3c(O)cc(-c4ccccc4)nc23)C1=Cc1ccccc1 [Compound 15d, 7-Benzylidene-4-hydroxy-2-phenylpyrido[4ʹ,3ʹ:3,4]pyrazolo[1,5-a]pyrimidine-8,10(7H,9H)-dione]",
300,"COc1ccc(C=C2C(=O)NC(=O)c3c2nn2c(O)cc(-c4ccccc4)nc32)cc1 [Compound 15e, 4-Hydroxy-7-(4-methoxybenzylidene)-2-phenylpyrido[4ʹ,3ʹ:3,4]pyrazolo[1,5-a]pyrimidine-8,10(7H,9H)-dione]",
330,"O=C1NC(=O)c2c(nn3c(O)cc(-c4ccccc4)nc23)C1=Cc1ccc(Cl)cc1 [Compound 15f, 7-(4-Chlorobenzylidene)-4-hydroxy-2-phenylpyrido[4ʹ,3ʹ:3,4]pyrazolo[1,5-a]pyrimidine-8,10(7H,9H)-dione]",
310,"Cc1cc(O)n2nc3c(c2n1)C(=O)NC(=O)C3=NNc1ccc(Cl)cc1 [Compound 16d, 7-(2-(4-Chlorophenyl)hydrazono)-4-hydroxy-2-methylpyrido[4ʹ,3ʹ:3,4]pyrazolo[1,5-a]pyrimidine-8,10(7H,9H)-dione]",
